{
  "source": "patent US20140100156A1",
  "about": "(SANOFI, priority 2012, published 2014)",
  "assay_type_in_all_cases": "in vivo",
  "key": {"[1]": {"tested_on": "female NMRI-mice", "assay": "Automated assessment of feed intake in mice", "conditions": "22 hours", "description": "Female NMRI-mice of a body weight between 20 and 30 g were used. Mice were adapted to housing conditions for at least one week and for at least one day single-caged in the assessment equipment, when basal data were recorded simultaneously. On the study day, test product was administered subcutaneously close to the lights-off phase (12 h lights off) and assessment of feed consumption was directly started afterwards. Assessment included continued monitoring (every 30 min) over 22 hours. Repetition of this procedure over several days was possible. Restriction of assessment to 22 hours was for practical reasons to allow for reweighing of animals, refilling of feed and water and drug administration between procedures. Results could be assessed as cumulated data over 22 hours or differentiated to 30 min intervals.\nStatistical analyses were performed with Everstat 6.0 by two-way ANOVA on repeated measures and Dunnetts post-hoc analyses. Differences were considered statistically significant at the p<0.05 level.\nFed female NMRI-mice, weighing on average 25-30 g, were administered 0.01 or 0.1 mg/kg of SEQ ID NO: 97 or phosphate buffered saline (vehicle control) subcutaneously, directly prior to start of feeding monitoring (time=0 h). Lights-off phase (dark phase) started 4 hours later."}, "[2]": {"tested_on": "female leptin-receptor deficient diabetic db/db mice", "assay": "Subchronic effect on blood glucose and HbA1c in female db/db mice", "description": "Female BKS.Cg-m+/+Leprdb/J (db/db) and BKS.Cg-m+/+Leprdb/+ (lean control) mice were obtained from Charles River Laboratories, Germany, at an age of 9-10 weeks. The animals were housed in groups in a specific pathogen-free barrier facility on a 12-h light/dark cycle with free access to water and rodent-standard chow. After 1 week of acclimatization, blood samples were drawn from the tail without anaesthesia and blood glucose (method: d-glucose hexokinase, hemolysate, AU640 Beckman Coulter) and HbA1c level (method: hemolysate, Cobas6000 c501, Roche Diagnostics, Germany) were determined. […]\n2) Subchronic effect on blood glucose and HbA1c: all animals were treated once daily s.c. with either vehicle or exendin-4 derivatives at the abovementioned doses for 4 weeks. At the end of the study, blood samples (tail, no anaesthesia) were analyzed for glucose and HbA1c. […]\nFemale diabetic mice were treated for 4 weeks once daily subcutaneously with 3, 10 or 100 μg/kg SEQ ID NO: 97 or vehicle. Blood glucose and HbA1c were determined before start of treatment and at the end of the study after 4 weeks of treatment.\nFemale diabetic mice were treated for 4 weeks subcutaneously with 50 μg/kg SEQ ID NO: 24 or vehicle twice daily. Blood glucose and HbA1c were determined before start of treatment and at the end of the study after 4 weeks of treatment."}, "[3]": {"tested_on": "female leptin-receptor deficient diabetic db/db mice", "assay": "Acute effect on blood glucose in fed female db/db mice", "description": "Female BKS.Cg-m+/+Leprdb/J (db/db) and BKS.Cg-m+/+Leprdb/+ (lean control) mice were obtained from Charles River Laboratories, Germany, at an age of 9-10 weeks. The animals were housed in groups in a specific pathogen-free barrier facility on a 12-h light/dark cycle with free access to water and rodent-standard chow. After 1 week of acclimatization, blood samples were drawn from the tail without anaesthesia and blood glucose (method: d-glucose hexokinase, hemolysate, AU640 Beckman Coulter) and HbA1c level (method: hemolysate, Cobas6000 c501, Roche Diagnostics, Germany) were determined.\nDb/db mice were stratified to treatment groups (n=8), so that each group had similar baseline blood glucose and HbA1c levels.\n1) Acute effect on blood glucose in fed db/db mice: initial blood samples were taken just before first administration (s.c.) of vehicle (phosphate buffer solution) or exendin-4 derivatives at doses of 3, 10, and 100 μg/kg (dissolved in phosphate puffer), respectively. The volume of administration was 5 mL/kg. The animals had access to water and chow during the experiment, food consumption was determined at all time points of blood sampling. Blood glucose levels were measured at t=0.5 h, t=1 h, t=2 h, t=4 h, t=6 h, t=8 h, and t=24 h. Blood sampling was performed by tail incision without anaesthesia.\nStatistical analyses were performed with Everstat 6.0 by repeated measures two-way ANOVA and Dunnetts post-hoc analyses. Differences versus vehicle-treated db/db control mice were considered statistically significant at the p<0.05 level.\nAfter blood sampling to determine the blood glucose baseline level, fed diabetic female db/db mice were administered 3, 10 or 100 μg/kg of SEQ ID NO: 97 or phosphate buffered solution (vehicle-treated db/db control) subcutaneously. At predefined time points, more blood samples were taken to measure blood glucose and generate the blood glucose profile over 24 h. […]"}},
  "data": [
    {"substance": "SEQ ID NO: 97: exendin-4 derivative, K(γE-x53) in position 14 (HXQGTFTSDLSKQKDSRRAQDFIEWLKNGGPSSGAPPPS; K14 side chain γE-x53; Exendin-4-analogue)", "values": [
      {"measurement": "reduction of feed intake at the end of the study", "setting": "[1]; 0.01 mg/kg s.c.", "result": 23, "unit": "%"},
      {"measurement": "reduction of feed intake at the end of the study", "setting": "[1]; 0.1 mg/kg s.c.", "result": 66, "unit": "%"},
      {"measurement": "blood glucose level versus db control mice at the end of the study", "setting": "[2]; 3, 10 or 100 μg/kg s.c. once daily, 4 weeks (all dose groups)", "result": "significant lower blood glucose level"},
      {"measurement": "HbA1c level versus db control mice at the end of the study", "setting": "[2]; high dose (100 μg/kg s.c. once daily), 4 weeks", "result": "significant lower HbA1c level"},
      {"measurement": "duration of decrease in blood glucose compared to db/db control mice", "setting": "[3]; high dose (100 μg/kg s.c.)", "result": "> 24", "unit": "h"},
      {"measurement": "duration of decrease in blood glucose compared to db/db control mice", "setting": "[3]; low dose (3 μg/kg s.c.)", "result": "up to 8 h"},
      {"measurement": "duration of decrease in blood glucose compared to db/db control mice", "setting": "[3]; medium dose (10 μg/kg s.c.)", "result": "up to 8 h"}
    ]}
  ]
}
